How the values were obtained:
[1] = biological target: T1, human Nav1.8 channels (Homo sapiens, UniProt Q9Y5Y9); test: FRET assay (FDSS membrane potential); format: cell-based; conditions: HEK293 cells expressing human Nav1.8 channels, read-out: IC50 against Nav1.8
T1 construct: expressed in transfected cells; host or cells: HEK293 cells
Method: (§1) This screen is used to determine the effects of compounds on human Nav1.8, and human Nav1.5 channels, utilizing the cell imaging technology by Hamamatsu Photonics's Functional Drug Screening System (FDSS). The changes of membrane potential are monitored with fluorescent membrane potential dye pair, DiSBAC2(3) and CC2-DMPE, using FRET technology.
(§2) HEK293 cells expressing human Nav1.8 channels or human Nav1.5 channels are grown in T225 flasks, in a 5% CO2 humidified incubator to about 80% confluence. […]
(§3) The data is analyzed and reported as normalized ratios of intensities measured in the 465 nm and 575 nm channels. The process of calculating these ratios is performed as follows: FR=(FI465 Max/FI575 Min)−(FI465B/FI575B) [Math.2] • “FR”=fluorescence ratio • “FI465B”=the mean of fluorescence intensity as baseline (before Na^+ ligand addition) at 465 nm • “FI575B”=the mean of fluorescence intensity as baseline (before Na^+ ligand addition) at 575 nm • “FI465Max”=maximum fluorescence intensity at 465 nm after Na^+ stimulation • “FI575Min”=minimum fluorescence intensity at 575 nm after Na^+ stimulation Inhibition (%)=100−(FR of each well)−(median FR in positive controls)/(median FR in negative controls)−(median FR in positive controls)×100 [Math.3] […]

[2] = biological target: T2, human Nav1.5 channels (Homo sapiens, UniProt Q14524); test: FRET assay (FDSS membrane potential); format: cell-based; conditions: HEK293 cells expressing human Nav1.5 channels, read-out: activity (IC50) against Nav1.5
T2 construct: expressed in transfected cells; host or cells: HEK293 cells
Method: as §1, §2, §3

T2 sequence (Q14524 whole entry): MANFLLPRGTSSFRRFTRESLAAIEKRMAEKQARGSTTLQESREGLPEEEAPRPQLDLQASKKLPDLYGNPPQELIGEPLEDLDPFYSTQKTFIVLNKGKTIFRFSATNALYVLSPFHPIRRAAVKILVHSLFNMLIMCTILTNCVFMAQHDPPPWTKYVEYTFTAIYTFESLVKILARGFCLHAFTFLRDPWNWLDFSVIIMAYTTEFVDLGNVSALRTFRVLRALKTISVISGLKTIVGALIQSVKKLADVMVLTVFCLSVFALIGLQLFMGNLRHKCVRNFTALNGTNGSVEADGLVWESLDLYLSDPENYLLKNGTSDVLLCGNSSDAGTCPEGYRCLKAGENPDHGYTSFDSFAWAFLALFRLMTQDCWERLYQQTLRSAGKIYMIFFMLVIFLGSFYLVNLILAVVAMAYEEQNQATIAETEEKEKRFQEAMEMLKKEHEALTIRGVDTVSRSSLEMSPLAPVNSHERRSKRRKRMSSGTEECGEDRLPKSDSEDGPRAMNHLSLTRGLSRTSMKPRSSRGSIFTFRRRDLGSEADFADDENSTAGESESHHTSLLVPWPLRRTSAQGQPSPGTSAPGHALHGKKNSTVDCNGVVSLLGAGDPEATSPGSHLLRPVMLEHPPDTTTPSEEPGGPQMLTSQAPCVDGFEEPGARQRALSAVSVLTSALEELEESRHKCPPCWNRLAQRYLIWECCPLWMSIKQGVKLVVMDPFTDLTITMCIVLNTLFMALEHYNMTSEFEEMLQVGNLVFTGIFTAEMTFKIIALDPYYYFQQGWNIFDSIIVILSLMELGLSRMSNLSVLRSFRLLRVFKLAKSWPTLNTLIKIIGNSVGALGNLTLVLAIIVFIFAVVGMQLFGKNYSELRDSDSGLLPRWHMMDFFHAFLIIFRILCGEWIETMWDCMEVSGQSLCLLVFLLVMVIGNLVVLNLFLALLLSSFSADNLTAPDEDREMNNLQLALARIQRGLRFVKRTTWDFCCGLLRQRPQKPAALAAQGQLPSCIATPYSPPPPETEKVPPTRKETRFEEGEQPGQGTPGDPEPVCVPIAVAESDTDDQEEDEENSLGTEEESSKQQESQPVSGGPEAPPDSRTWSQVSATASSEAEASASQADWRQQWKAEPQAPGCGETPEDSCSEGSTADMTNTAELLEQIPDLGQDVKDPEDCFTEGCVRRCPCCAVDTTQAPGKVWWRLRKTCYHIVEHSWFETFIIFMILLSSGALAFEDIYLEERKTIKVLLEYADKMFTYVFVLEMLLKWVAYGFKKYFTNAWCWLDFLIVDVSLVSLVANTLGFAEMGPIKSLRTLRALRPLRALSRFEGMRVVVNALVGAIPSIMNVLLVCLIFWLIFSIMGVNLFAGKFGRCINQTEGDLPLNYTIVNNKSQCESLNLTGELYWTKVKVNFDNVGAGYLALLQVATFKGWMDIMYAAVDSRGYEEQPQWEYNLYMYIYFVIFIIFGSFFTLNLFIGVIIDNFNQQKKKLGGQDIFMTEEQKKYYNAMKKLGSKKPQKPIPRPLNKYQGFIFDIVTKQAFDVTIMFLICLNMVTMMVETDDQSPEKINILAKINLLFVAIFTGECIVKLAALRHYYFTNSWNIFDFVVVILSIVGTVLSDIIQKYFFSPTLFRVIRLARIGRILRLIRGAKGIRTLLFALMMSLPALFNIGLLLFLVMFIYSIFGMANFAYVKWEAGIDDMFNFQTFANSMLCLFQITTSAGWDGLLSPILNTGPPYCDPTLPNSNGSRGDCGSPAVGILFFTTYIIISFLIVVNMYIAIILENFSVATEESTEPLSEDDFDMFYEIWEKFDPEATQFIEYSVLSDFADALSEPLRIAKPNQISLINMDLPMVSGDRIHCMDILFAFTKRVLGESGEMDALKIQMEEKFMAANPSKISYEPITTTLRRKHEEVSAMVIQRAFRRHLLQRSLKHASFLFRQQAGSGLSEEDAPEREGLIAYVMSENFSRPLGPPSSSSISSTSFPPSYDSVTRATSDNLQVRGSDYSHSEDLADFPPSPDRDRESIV
T1 sequence (Q9Y5Y9 whole entry): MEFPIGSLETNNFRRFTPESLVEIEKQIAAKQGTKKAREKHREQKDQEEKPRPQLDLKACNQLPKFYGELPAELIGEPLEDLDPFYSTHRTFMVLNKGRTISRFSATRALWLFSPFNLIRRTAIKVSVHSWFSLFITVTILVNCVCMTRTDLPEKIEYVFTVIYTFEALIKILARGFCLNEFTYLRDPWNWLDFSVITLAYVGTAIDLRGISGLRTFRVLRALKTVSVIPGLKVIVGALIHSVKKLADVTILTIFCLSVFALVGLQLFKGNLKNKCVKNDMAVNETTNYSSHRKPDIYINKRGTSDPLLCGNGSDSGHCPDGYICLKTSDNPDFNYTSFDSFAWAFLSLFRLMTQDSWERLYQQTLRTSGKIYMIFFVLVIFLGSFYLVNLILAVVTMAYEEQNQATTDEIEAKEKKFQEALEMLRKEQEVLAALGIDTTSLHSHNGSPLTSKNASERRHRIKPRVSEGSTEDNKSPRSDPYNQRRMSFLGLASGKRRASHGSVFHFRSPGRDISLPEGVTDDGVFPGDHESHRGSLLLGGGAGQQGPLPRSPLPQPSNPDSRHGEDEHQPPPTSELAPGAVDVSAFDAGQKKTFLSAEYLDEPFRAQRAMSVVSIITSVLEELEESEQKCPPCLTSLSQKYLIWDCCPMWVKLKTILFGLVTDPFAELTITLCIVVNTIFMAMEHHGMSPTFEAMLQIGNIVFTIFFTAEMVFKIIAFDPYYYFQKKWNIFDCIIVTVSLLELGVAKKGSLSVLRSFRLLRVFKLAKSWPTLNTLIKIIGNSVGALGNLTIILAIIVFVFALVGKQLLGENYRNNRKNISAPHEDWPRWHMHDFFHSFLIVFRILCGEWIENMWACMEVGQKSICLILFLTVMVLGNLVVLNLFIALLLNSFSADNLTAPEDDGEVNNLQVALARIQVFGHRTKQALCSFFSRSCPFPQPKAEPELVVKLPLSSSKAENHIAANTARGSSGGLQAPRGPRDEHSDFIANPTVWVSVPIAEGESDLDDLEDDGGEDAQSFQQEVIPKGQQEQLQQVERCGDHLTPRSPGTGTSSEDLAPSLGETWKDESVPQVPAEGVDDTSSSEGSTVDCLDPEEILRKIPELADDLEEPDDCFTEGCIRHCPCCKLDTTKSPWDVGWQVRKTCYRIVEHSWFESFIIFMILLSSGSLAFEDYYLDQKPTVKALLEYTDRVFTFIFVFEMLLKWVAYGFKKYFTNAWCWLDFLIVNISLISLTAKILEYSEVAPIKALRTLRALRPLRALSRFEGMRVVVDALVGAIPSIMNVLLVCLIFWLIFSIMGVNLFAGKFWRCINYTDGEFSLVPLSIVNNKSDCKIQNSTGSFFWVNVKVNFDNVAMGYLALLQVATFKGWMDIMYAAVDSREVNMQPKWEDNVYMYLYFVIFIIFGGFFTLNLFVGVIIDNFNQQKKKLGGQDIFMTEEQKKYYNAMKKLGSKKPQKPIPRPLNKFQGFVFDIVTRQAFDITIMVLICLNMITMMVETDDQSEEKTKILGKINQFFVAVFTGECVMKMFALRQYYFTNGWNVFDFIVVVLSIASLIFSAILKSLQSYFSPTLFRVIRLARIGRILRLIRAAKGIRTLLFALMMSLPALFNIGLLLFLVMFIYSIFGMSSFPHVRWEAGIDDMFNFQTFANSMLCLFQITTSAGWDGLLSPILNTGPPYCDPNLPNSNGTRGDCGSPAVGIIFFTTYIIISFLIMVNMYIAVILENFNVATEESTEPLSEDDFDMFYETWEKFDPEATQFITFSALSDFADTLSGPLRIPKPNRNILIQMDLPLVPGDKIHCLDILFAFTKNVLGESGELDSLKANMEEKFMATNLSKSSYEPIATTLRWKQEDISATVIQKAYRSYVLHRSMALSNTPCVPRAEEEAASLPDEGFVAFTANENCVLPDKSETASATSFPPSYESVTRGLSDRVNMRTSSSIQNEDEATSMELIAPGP

O=C(N[C@@H]1CCCN(c2ncc(C(F)(F)F)cc2Cl)C1)c1ccnc(NC(=O)C2CC2)c1 [Example 7]
IC50 [1]: 2000 nM
IC50 [2]: > 30000 nM

From patent US12110287B2, “Heterocyclic derivatives as Nav1.7 and Nav1.8 blockers” (RaQualia Pharma Inc., priority 2018, dated 2024)
